Experiment [1] deals with Oct-4- and Nanog-overexpressed A549 clone (A3). Kind of experiment: MTT cytotoxicity assay, A3 cells. Format: cell-based. As to conditions: Homo sapiens, 48 h of drug exposure. Here is the method:
(§1) Non-small cell lung cancer cells A549 and Oct-4- and Nanog-overexpressed A549 clone (clone #3; A3), presented the properties of cancer stem-like cells, as well as epithelial-mesenchymal transdifferentiation, according to our previous study. They were grown in the same conditions as RPMI 1640 media supplemented with 10% fetal bovine serum (FBS), 100 units/mL penicillin, […] streptomycin, 1 mM sodium pyruvate, 2 mM l-glutamine and 1% non-essential amino acid (NEAA) in a humidified atmosphere with 5% CO2 at 37°C. Normal fibroblast cells HEL299 from American Type Culture Collection (ATCC) were grown in MEM media supplemented with 10% FBS, 100 units/mL penicillin, […] streptomycin, 1 mM sodium pyruvate, 2 mM l-glutamine and 1% NEAA, in a humidified atmosphere with 5% CO2 at 37°C.
(§2) The tetrazolium reagent (MTT; 3-(4,5-dimethylthiazol-2-yl)-2,5-diphenyl-tetrazolium bromide, USB) was designed to yield a colored formazan upon metabolic reduction by viable cells, [61]. Approximately 5×10^4 cells were plated onto each well of a 24-well plate and incubated in 5% CO2 at 37°C for 24 hours. To assess the in vitro cytotoxicity, each compound was dissolved in DMSO and prepared immediately before the experiments and then was diluted into the complete medium before being added to cell cultures. Test compounds were then added to the culture medium in various designated concentrations. After 48 hours, an amount of 100 µl of MTT was added to each well, and the samples were incubated at 37°C for 2 h. 100 µl DMSO was added to each well. The absorbency at 560 nm and reference absorbency at 670 nm were measured using an ELISA reader.
For orientation: Tetrazolium assays rely on reduction of a dye to a coloured formazan, in cell work by metabolically active cells.

A further experiment deals with A549 cells. The experiment can be described thus: MTT cytotoxicity assay, A549 cells. The following applies: Homo sapiens, 48 h of drug exposure. Format: cell-based. Here is the method: as §1, §2
The subject of another experiment is HEL299 cells. The experiment can be described thus: MTT cytotoxicity assay, HEL299 normal fibroblasts. As to conditions: Homo sapiens, HEL 299, 48 h of drug exposure. Format: cell-based. As to the method: as §1, §2
The target in a further experiment is T1, PARP-1 (Homo sapiens, UniProt P09874).
T1 construct: purchased
The experiment can be described thus: PARP inhibitory assay (histone-coated plate, colorimetric). Format: biochemical. Here is the method:
We used histone-coated 96-well plate treated with seven putative PARP-1 inhibitors or well-known PARP-1 inhibitors (3-AB), and then added PARP enzyme to each well. PARP enzyme catalyzes the NAD-dependent addition of poly (ADP-ribose) to histone, and diluted Strp-HRP could bind to PARylation histone. TACS-Sapphire™ yielded blue under the HRP existence. In order to systematically evaluate the potential anticancer activity, the compounds were tested for their cytotoxicity in vitro against 60 human cancer lines in the NCI anticancer drug screen as well as for dose response curves and telomerase activity. Cell growth was analyzed by the MTT assay, with differences between dose-response curves analyzed non-parametrically. Telomerase activity was detected by a modified version of the PCR-based assay and TRAP assay. […] However, PARP inhibitory effects had no difference at 1 and 10 µM. As described above, NSC746364, NSC746366 and NSC749232 show dose-dependency only at low concentrations. […] NSC747854 had dose-dependent PARP inhibitory manners at three different concentrations, and reached the maximum inhibitory effect of 86% at 10 µM (Table 4). […] In this investigation, we continued to focus our attention on the role of NSC747854 and to understand the basis of pharmacophore selectivity. Of particular note is the significant difference with these selected compounds, compared with that of 3-AB and PJ-34. […] An electron-rich aromatic ring system, including a carboxamide group, should have at least a hydrogen atom on the amide nitrogen. The amidinium moiety is known to contribute to the stabilization of DNA recognition element through electrostatic and hydrogen bonding interactions. Therefore, hydrogen bonds are frequently used as recognition elements due to their directionality and also due to being attractive factors to the biological activity (Figure 1). Many classes of drugs have substantial curvature, high DNA affinity, binding to the minor-groove or major-groove, interference with DNA-associated enzymes (e.g. telomerase), and Poly (ADP-ribose) polymerase, PARP. […] This approach greatly expands the utility of the substituents and related pharmacophore for the construction of drugs in general. Therefore, it is desirable to design PARP inhibitors in accordance with various anticancer parameters. It was first reported that anthraquinone analogues are potent human PARP inhibitors.
Strip wells were removed from the wrapper and 50 µl of 1X PARP Buffer was added to each well to rehydrate the histones. They were incubated at room temperature for 30 minutes. The 1X PARP buffer was removed from the wells by tapping the strip wells on paper towels. The serial dilutions of inhibitor of interest were added to appropriate wells. The diluted PARP enzyme (0.5 unit/well) was then added to the wells containing inhibitor. They were incubated for 10 minutes at room temperature. The PARP Enzyme-High Specific Activity (PARP-HAS) standard was serially diluted in cold micro-tubes with 1X PARP buffer such that the total activity was 1 unit/25 µl, 0.5 units/25 µl, 0.25 units/25 µl, 0.1 units/25 µl, 0.05 units/25 µl, 0.025 units/25 µl, and 0.01 units/25 µl, respectively. The 25 µl of each standard was added to triplicate wells. The 25 µl of 1X PARP cocktail were distributed into each well by using a multichannel pipettor. The final reaction volume is 50 µl. They were incubated along with the strip wells at room temperature for 60 minutes. The strip wells were washed 2 times with 1X PBS +0.1% Triton X-100 (200 µl/well) followed by 2 washes with 1X PBS. All the liquid was removed following each wash by tapping strip wells onto paper towels. The 50 µl diluted Strep-HRP were added per well. They were incubated at room temperature for 60 minutes. The strip wells were washed 2 times with 1X PBS +0.1% Triton X-100 (200 µl/well) followed by 2 washes with 1X PBS. All the liquid was removed following each wash by tapping strip wells onto paper towels. […]

The test system of the next experiment is NCI-H226. Kind of experiment: NCI-60 drug screen (SRB), NSCLC line NCI-H226. Format: cell-based, human. As to the method:
(§3) As a primary screening, seven selected compounds were submitted to the National Cancer Institute (NCI) cell lines screen for evaluation of their anticancer activity. From the data analysis, it follows that approximately 95% of the actives from the 60 cell lines screen can be identified. The detailed methods used for the 60 cell lines panel have been described elsewhere [54]–[59]. Briefly, cellular protein levels were determined after 48 hours of drug exposure by SRB colorimetry. Through the use of a time zero cell control, the cell growth can be determined for each cell line thus allowing calculations of GI50, TGI, and LC50. Comparison to plates not exposed to drug permits determination of concentration and times of exposure conferring GI50, TGI, and LC50. […] By these criteria, seven compounds reported from our compounds bank were all active and passed on for evaluation in the full panel of 60 human tumor cell lines. The panel is organized into nine subpanels representing diverse histology: leukemia, melanoma, and cancers of the lung, colon, kidney, ovary, breast, prostate, and central nervous system.

The next experiment deals with NCI-H522. Kind of experiment: NCI-60 drug screen (SRB), NSCLC line NCI-H522. Format: cell-based, human. As to the method: as §3
The subject of a further experiment is A549/ATCC. Kind of experiment: NCI-60 drug screen (SRB), NSCLC line A549/ATCC. Format: cell-based, human. Here is the method:
as §3

The next experiment has as its system HOP-62. Kind of experiment: NCI-60 drug screen (SRB), NSCLC line HOP-62. Format: cell-based, human. As to the method: as §3
Another experiment concerns NCI-H460. Kind of experiment: NCI-60 drug screen (SRB), NSCLC line NCI-H460. Format: cell-based, human. Here is the method:
as §3

A further experiment has as its system NCI-H23. The experiment can be described thus: NCI-60 drug screen (SRB), NSCLC line NCI-H23. Format: cell-based, human. As to the method: as §3
A further experiment has as its system EKVX. The experiment can be described thus: NCI-60 drug screen (SRB), NSCLC line EKVX. Format: cell-based, human. Here is the method:
as §3

The next experiment has as its system NCI-H322M. Kind of experiment: NCI-60 drug screen (SRB), NSCLC line NCI-H322M. Format: cell-based, human. Here is the method: as §3
Setting [2] is: Homo sapiens, 48 hours drug exposure, SRB, read-out: GI50.
The mark [3] stands for this setting: Homo sapiens, 48 hours drug exposure, SRB, read-out: LC50 (the source's name).
Where [4] appears, read: Homo sapiens, NCI in vitro 60-cell lines Drug Screen, read-out: -Log GI50 (converted).
The mark [5] stands for this setting: Homo sapiens, 48 hours drug exposure, SRB.

Like-named read-outs stand apart in the source and are kept apart here.

As a reminder, the IC50 is the midpoint of a concentration-inhibition curve. What is called inhibition is the percentage by which the read-out fell short of the control. Low values mean little suppression, high ones strong suppression. A word on the TGI: it is the concentration giving total growth inhibition. Read a high TGI as lower sensitivity of the cells. The term GI50 denotes the concentration at which growth is held to half of that of the control. A word on the LC50: it is the concentration that kills 50% of the test population. Lower therefore signals a more lethal substance.

T1 sequence (P09874 whole entry): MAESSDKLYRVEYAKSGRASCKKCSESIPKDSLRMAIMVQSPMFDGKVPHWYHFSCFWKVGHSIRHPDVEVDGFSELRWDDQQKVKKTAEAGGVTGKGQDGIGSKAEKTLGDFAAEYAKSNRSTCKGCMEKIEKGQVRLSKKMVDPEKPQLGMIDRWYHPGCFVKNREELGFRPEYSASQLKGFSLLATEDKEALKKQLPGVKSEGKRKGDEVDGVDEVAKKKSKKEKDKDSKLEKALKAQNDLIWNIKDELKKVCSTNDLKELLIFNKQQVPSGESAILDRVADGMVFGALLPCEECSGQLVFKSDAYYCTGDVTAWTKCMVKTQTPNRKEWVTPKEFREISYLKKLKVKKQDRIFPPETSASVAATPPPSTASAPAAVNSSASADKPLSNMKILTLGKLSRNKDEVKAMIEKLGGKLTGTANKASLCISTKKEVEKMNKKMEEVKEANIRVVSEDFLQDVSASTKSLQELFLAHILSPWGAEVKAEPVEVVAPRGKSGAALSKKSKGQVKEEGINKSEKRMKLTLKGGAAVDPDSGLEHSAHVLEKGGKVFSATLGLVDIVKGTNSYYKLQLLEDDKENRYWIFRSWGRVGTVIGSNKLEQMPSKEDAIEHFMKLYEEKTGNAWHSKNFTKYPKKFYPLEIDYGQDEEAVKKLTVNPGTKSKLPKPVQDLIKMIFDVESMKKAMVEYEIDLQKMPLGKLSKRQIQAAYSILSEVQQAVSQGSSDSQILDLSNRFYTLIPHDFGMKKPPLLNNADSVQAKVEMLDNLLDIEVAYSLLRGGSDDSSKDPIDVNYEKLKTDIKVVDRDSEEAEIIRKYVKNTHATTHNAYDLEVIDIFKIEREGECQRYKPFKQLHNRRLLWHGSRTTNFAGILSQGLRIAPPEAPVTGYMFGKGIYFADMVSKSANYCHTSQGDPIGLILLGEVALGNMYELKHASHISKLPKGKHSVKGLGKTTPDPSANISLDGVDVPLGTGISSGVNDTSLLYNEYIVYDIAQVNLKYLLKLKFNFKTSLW

As to `CN(C)CC(=O)Nc1ccc2[nH]c(=O)c3ccccc3c2c1` [PJ-34, reference compound], the IC50 in experiment [1] was determined as 9.44 µM; with A549 cells, 31.7 µM; in the experiment with HEL299 cells, 14.7 µM.

Take `NC(=O)c1cccc(N)c1` [3-AB, 3-Aminobenzamide, reference compound]: the IC50 in [1] was determined as 10.8 µM. Half-maximal inhibition in the experiment on A549 cells (IC50) required 13.1 µM. At PARP-1, the inhibition at 0.1 µM was 4%, the inhibition at 1 µM came out at 10% and testing at 10 µM gave an inhibition of 18%. In addition, in the experiment with HEL299 cells, the half-maximal inhibitory concentration (IC50) worked out at 5.98 µM.

Regarding `O=C1c2ccccc2C(=O)c2c1ccc1nc(SCCN3CCCC3)[nH]c21` [NSC747515], the TGI in the experiment on NCI-H226 (48 hours drug exposure, SRB) was 36.6 µM; in the experiment with NCI-H522 (48 hours drug exposure, SRB), 32.5 µM; in the experiment on A549/ATCC (48 hours drug exposure, SRB), 15.0 µM; in the experiment with HOP-62 (48 hours drug exposure, SRB) it was 33.2 µM; in the experiment with NCI-H460 (48 hours drug exposure, SRB), 4.77 µM; with NCI-H23 (48 hours drug exposure, SRB), 25.7 µM. Further, the concentration for total growth inhibition (TGI) with EKVX (48 hours drug exposure, SRB) worked out at 26.5 µM; in the experiment on NCI-H322M (48 hours drug exposure, SRB), 21.4 µM. Also, the 50% growth inhibitory concentration (GI50) in the experiment on NCI-H226 (setting [2]) is 19.3 µM; in the experiment with NCI-H226 (setting [4]), 19.5 µM; in the experiment on NCI-H522 (setting [2]), 15.9 µM; in the experiment with NCI-H522 (setting [4]), 15.8 µM; in the experiment with A549/ATCC (setting [2]), 3.8 µM; in the experiment on A549/ATCC (setting [4]), 3.8 µM. The concentration for 50% growth inhibition (GI50) in the experiment on HOP-62 (setting [2]) is 18 µM; in the experiment on HOP-62 (setting [4]), 18.2 µM; in the experiment on NCI-H460 (setting [2]), 1.68 µM; with NCI-H460 (setting [4]) it was 1.7 µM; in the experiment on NCI-H23 (setting [2]) it was 11.6 µM; in the experiment with NCI-H23 (setting [4]) it was 11.5 µM. Further, the GI50 with EKVX (setting [2]) is 11.2 µM; in the experiment on EKVX (setting [4]) it was 11.2 µM; in the experiment with NCI-H322M (setting [2]) it was 8.21 µM; in the experiment on NCI-H322M (setting [4]), 8.13 µM. The CC50 was 69.7 µM with NCI-H226 (setting [3]), 66.2 µM in the experiment on NCI-H522 (setting [3]), 61.2 µM in the experiment with HOP-62 (setting [3]) and 56.9 µM in the experiment with NCI-H23 (setting [3]). In addition, the IC50 stood at 7.05 µM in experiment [1], 11.8 µM in the experiment with A549 cells and 25.9 µM in the experiment on HEL299 cells. Moreover, the LC50 (concentration killing 50% of cells) with A549/ATCC (setting [5]) turned out to be 41.8 µM; in the experiment on NCI-H460 (setting [5]) it was 29.3 µM. Also, the inhibition at 0.1 µM on PARP-1 was found to be 20%. The compound further had an inhibition at 1 µM on PARP-1 of 22%. Further, at PARP-1, the inhibition at 10 µM amounted to 24%. The LC50 stood at 62.4 µM with EKVX (setting [5]) and 47.3 µM in the experiment with NCI-H322M (setting [5]).

Values taken from paper PMC3581553, “New Approaches of PARP-1 Inhibitors in Human Lung Cancer Cells and Cancer Stem-Like Cells by Some Selected Anthraquinone-Derived Small Molecules” (PLoS ONE, 2013).
